Results: patent US6686444B2, “Osteopontin derived chemotactic peptides and methods of use” (Children's Medical Center Corporation, priority 1996, dated 2004)

B1: OPN(ct): the C-terminal half of OPN after thrombin cleavage (protein)
chain: SKSRSFQVSDEQYPDATDEDLTSHMKSGESKESLDVIPVAQLLSMPSDQDNNGKGSHESSQLDEPSLETHRLEHSKESQESADQSDVIDSQASSKASLEHQSHKFHSHKDKLVLDPKSKEDDRYLKFRISHELESSSSEVN

Key:
osteosarcoma cells = assay: Modified Boyden chamber chemotaxis of osteosarcoma cells; assay type: cell-based; settings: for Chemotactic activity (in words): osteosarcoma cells
Experimental: Purified OPN (˜0.5 mg) was digested with trypsin (2% w/w) in 0.2 ml of 50 mM NH4HCO3, pH 8.0, for 20 hours at 37° C. before treatment of the reaction products with 50 μl of 100% H2O+0.1% trifluoroacidic acid (TFA) and resolution of the peptides by HPLC chromatography on C-18 column (25×0.46 cm). After injection the column was washed for 10 min, followed by linear gradient elution from 100% H2O+0.1% TFA to 60% CH3CN+0.55% TFA over 120 min, with a second gradient from 60% CH3CN to 80% CN3CN over 30 min at a flow rate of 0.5 ml/min. The absorbance at 219 nm was recorded continuously by an on-line chart recorder/integrator using Gilson HM Holochrome detector, and fractions of 0.5 ml were collected. Each peak was then tested for mediation of chemotaxis or for its ability to inhibit OPN mediated chemotaxis using the chemotactic assay described in Example 4 below. Furthermore, each peak was also tested for its ability to promote attachment of CD44^+ or αvβx cells.
Positive peaks from tryptic digest were sequenced by gas-phase automated sequenator. Chemotactic peptides corresponding to the positive sequences were synthesized and the resulting synthetic peptides were then tested for their ability to promote either chemotaxis or to inhibit the chemotaxis to OPN as described in Example 4. Chemical synthesis of peptides provides a convenient method to test the sequence specificity and minimal length of the chemotactic peptides.
In a modified Boyden chamber, both surfaces of polycarbonate filters (pore size, 8 μm) were coated with gelatin (100 μg/ml, overnight) before 1×10^3 osteosarcoma cells were added in 500 μl to the upper chamber and incubated at 37° C. in the presence or absence of chemotactic agents in the lower chamber. After two hours, the membranes were fixed in methanol and stained with hematoxilin/toluidine blue. Responding cells on the lower surface of the filter were counted microscopically and evaluated in triplicates. Random migration was assessed by counting the number of cells that migrated to the lower surface of the filter when excess chemotactic molecule was added to the upper chamber.

peritoneal exudate cells = assay: In vivo cellular migration into the peritoneum after intraperitoneal injection (peritoneal exudate, flow cytometry); design: species or system Mice
Experimental: Mice were injected intraperitoneally with varying dosages of K7 osteosarcoma-derived osteopontin. All injection volumes were 200 μl. Injections of vehicle alone (PBS) served as negative controls and vehicle plus 20 μg lipopolysaccharide (LPS) injections served as positive controls for elicitation of peritoneal exudates.
Mice were sacrificed by CO2-asphyxiation at varying times following injection. Immediately after sacrifice, peritoneal exudate was recovered by intraperitoneal injection and recovery of 10 mL PBS. The lavage procedure was performed twice on each mouse. Following this, red blood cells were lysed by hypotonic lysis with ACK lysis buffer (0.15 M NH4Cl, 1.0 mM KHCO3, 0.1 mM Na2EDTA, pH 7.4) for 5 minutes at room temperature, and the preparation was washed in DMEM, 5% FBS. Cells were resuspended in DMEM, 5% FBS for fluorescent antibody staining.
Each sample of cells to be analyzed for specific surface markers was suspended in DMEM, 5% FBS at a concentration of 0.2 to 1 million cells in 50 μl. Fluorescence-labeled antibodies were added at 1 μg/1×10^6 cells, and incubated with the cells for 30 minutes at 4° C. Samples were washed twice with 200 μl of PBS following antibody staining and fixed with 500 μl of 2% paraformaldehyde in PBS. Peritoneal exudate cells were analyzed by dual-color flow cytometry for expression of CD44 (PE), CD11b (Mac-1, FITC, macrophage marker), B220 (FITC, B-cell marker), and CD3 (FITC, T-cell marker). All antibodies were purchased from PharMingen and flow cytometric analysis was done using a Coulter EPICS flow cytometer. Controls for non-specific binding and single color controls were included.

[1] = Table 2, substance in lower chamber, upper chamber OPN
[2] = Table 2, substance in lower chamber, upper chamber PBS
[3] = Table 2, substance in lower chamber, upper chamber SP64
[4] = Table 2, substance in lower chamber, upper chamber peptide 51
[5] = Table 2, substance in upper chamber, lower chamber PBS
[6] = Table 3, substance in lower chamber, upper chamber Ab64
[7] = Table 3, substance in lower chamber, upper chamber OPN
[8] = Table 3, substance in lower chamber, upper chamber PBS
[9] = Table 3, substance in lower chamber, upper chamber peptide 51
[10] = Table 3, substance in upper chamber, lower chamber PBS
[11] = Table 4, substance in lower chamber, upper chamber OPN
[12] = Table 4, substance in lower chamber, upper chamber OPN(ct)
[13] = Table 4, substance in lower chamber, upper chamber OPN(nT)
[14] = Table 4, substance in lower chamber, upper chamber PBS, averages from at least three experiments
[15] = Table 4, substance in upper chamber, lower chamber PBS
[16] = 6 hours after intraperitoneal injection

Molecule | Chemotactic activity (in words) (osteosarcoma cells) | Responding cells on the lower surface of the filter (osteosarcoma cells; [1]) | Responding cells on the lower surface of the filter (osteosarcoma cells; [2]) | Responding cells on the lower surface of the filter (osteosarcoma cells; [3]) | Responding cells on the lower surface of the filter (osteosarcoma cells; [4]) | Responding cells on the lower surface of the filter (osteosarcoma cells; [5]) | Responding cells on the lower surface of the filter (osteosarcoma cells; [6]) | Responding cells on the lower surface of the filter (osteosarcoma cells; [7]) | Responding cells on the lower surface of the filter (osteosarcoma cells; [8]) | Responding cells on the lower surface of the filter (osteosarcoma cells; [9]) | Responding cells on the lower surface of the filter (osteosarcoma cells; [10]) | Responding cells on the lower surface of the filter (osteosarcoma cells; [11]) | Responding cells on the lower surface of the filter (osteosarcoma cells; [12]) | Responding cells on the lower surface of the filter (osteosarcoma cells; [13]) | Responding cells on the lower surface of the filter (osteosarcoma cells; [14]) | Responding cells on the lower surface of the filter (osteosarcoma cells; [15]) | further results
LVLAPK (OTHER INFORMATION: Osteopontin Derived Peptide) [mutant of peptide 51 with aspartic acid replaced] | failed to induce chemotaxis | – | – | – | – | – | – | – | – | – | – | – | – | – | – | – | –
LVLDPK (OTHER INFORMATION: Osteopontin derived peptide) [peptide 51, chemotactic tryptic peptide of osteopontin, also synthesized] | showed chemotactic properties | 88 | 128 | 47 | 51 | 9 | 62 | 187 | 243 | 109 | 8 | – | – | – | – | – | Competition with OPN for the migration of cells (osteosarcoma cells): competes with OPN; Responding cells on the lower surface of the filter (osteosarcoma cells; Table 1, substance in lower chamber, upper chamber PBS): 68; Responding cells on the lower surface of the filter (osteosarcoma cells; Table 1, substance in lower chamber, upper chamber peptide 49): 83; Responding cells on the lower surface of the filter (osteosarcoma cells; Table 1, substance in lower chamber, upper chamber peptide 50): 56; Responding cells on the lower surface of the filter (osteosarcoma cells; Table 1, substance in lower chamber, upper chamber peptide 51): 32; Responding cells on the lower surface of the filter (osteosarcoma cells; Table 1, substance in lower chamber, upper chamber peptide 52): 78; Responding cells on the lower surface of the filter (osteosarcoma cells; Table 1, substance in lower chamber, upper chamber peptide 53): 62; Responding cells on the lower surface of the filter (osteosarcoma cells; Table 1, substance in upper chamber, lower chamber PBS): 13
osteopontin [OPN] | chemotax toward | 43 | 118 | 45 | 32 | 21 | 51 | 94 | 217 | 65 | 14 | 43 | 58 | 115 | 98 | 21 | Dose of peak response of cellular infiltrate (peritoneal exudate cells; [16]): around 13 μg; Number of CD3+ and B220+ cells in the infiltrate (peritoneal exudate cells; [16]): only marginally elevated; Number of Mac-1+ cells in the infiltrate over basal levels (peritoneal exudate cells; [16]): increased fivefold; Cellular infiltrate in the peritoneum (in words) (peritoneal exudate cells; 6 hours after intraperitoneal injection, dose titration): dose dependent increase; Dose of peak CD44+ Mac1+ cell response (peritoneal exudate cells; intraperitoneal injection): around 7 μg; Peritoneal influx of cells (peritoneal exudate cells; intraperitoneal injection, mice): 1.16 million cells
KFHSHKDKLVLDPKSK (OTHER INFORMATION: Osteopontin Derived Peptide) [SP64] | – | 74 | 117 | 66 | 40 | 4 | – | – | – | – | – | – | – | – | – | – | –
VLDPK (OTHER INFORMATION: Osteopontin Derived Peptide) [peptide E] | retains some chemotactic activity | – | – | – | – | – | – | – | – | – | – | – | – | – | – | – | Chemotactic activity (in words) (osteosarcoma cells; listed as VLDPK): retains some chemotactic properties
B1 | chemotax toward | – | – | – | – | – | – | – | – | – | – | 74 | 31 | 76 | 117 | 156 | –
